Columns and labels:
[1] = tested on: EB–DNA adduct (CT DNA); experiment: EB-displacement (EB–DNA fluorescence quenching); format: binding, calf; conditions: for relative EB–DNA fluorescence emission intensity (I/Io, %), final: % of the initial EB–DNA fluorescence remaining, λemission 594 nm; for percentage of EB–DNA fluorescence emission quenching (ΔI/I0, %): λexcitation 540 nm, emission 594 nm, buffer pH 7; for quenching constant Kq (EB–DNA): τ0 = 23 ns
Experimental: For the current study, the EB–DNA adduct was prepared in situ after 1-h pretreatment of EB (40 μΜ) and CT DNA (40 μΜ) in buffer solution (sodium chloride 150 mM and sodium citrate 15 mM at pH = 7).
Furthermore, the Stern–Volmer constants (KSV) that represent the ability of the compounds to induce quenching were calculated with the Stern–Volmer equation (Equation (S2)) and the corresponding Stern–Volmer plots […] vs. [Q] (Figure S8). […] The corresponding quenching constants (Kq) were calculated with Equation (S3) using the value of 23 ns as the fluorescence lifetime (τ0) of EB–DNA adduct.
S3.4 EB−displacement studies
The competition of the compounds with EB was investigated by fluorescence emission spectroscopy to examine whether the compounds can displace EB from its DNA−EB adduct. The CT DNA−EB complex was formed by pre−treating 40 μM EB and […] CT DNA in buffer (150 mM NaCl and 15 mM trisodium citrate at pH 7.0). The possible displacement of EB by the compound sand subsequently the intercalating effect was studied by the stepwise addition of a certain amount of the solution of each compound into the solution of the CT DNA−EB adduct. The solutions were excited at 540 nm and the emission was monitored from 550−700 nm with λmax = 592−594 nm and the effect of the addition of the compounds to the CT−DNA EB solution was recorded. […]
fluorescence emission bands at room temperature in solution or in the presence of CT DNA or EB under the same experimental conditions (λexcitation = 540 nm); therefore, the observed quenching of the EB−DNA solution may be attributed to the displacement of EB from its […]
The Stern−Volmer constants (KSV, in M−1) were calculated according to the linear Stern−Volmer equation (equation S2) and the respective plots Io/I versus [compound]:
Io = 1 + K τ [Q] = 1 + K [Q] (equation S2) […]
where Io and I are the emission intensities of the EB−DNA solution in the absence and the presence of the compound, respectively, τo = the average lifetime of the emitting system without the quencher and kq = the quenching constant. Taking τo = 23 ns as the fluorescence lifetime of the EB−DNA adduct, the quenching constant of the compound (Kq, in M−1s−1) was calculated according to equation [6]: […]

[2] = target: T1, bovine serum albumin (BSA) (Bos taurus, UniProt P02769); experiment: Competitive albumin-fluorescence studies with warfarin and ibuprofen; format: binding; conditions: for preferential BSA-binding site: from comparison of K with and without site markers; for K(BSA, ibuprofen): in the presence of ibuprofen; for K(BSA, warfarin): in the presence of warfarin
T1 construct: purchased Sigma-Aldrich Co
T1 sequence (P02769 25-607): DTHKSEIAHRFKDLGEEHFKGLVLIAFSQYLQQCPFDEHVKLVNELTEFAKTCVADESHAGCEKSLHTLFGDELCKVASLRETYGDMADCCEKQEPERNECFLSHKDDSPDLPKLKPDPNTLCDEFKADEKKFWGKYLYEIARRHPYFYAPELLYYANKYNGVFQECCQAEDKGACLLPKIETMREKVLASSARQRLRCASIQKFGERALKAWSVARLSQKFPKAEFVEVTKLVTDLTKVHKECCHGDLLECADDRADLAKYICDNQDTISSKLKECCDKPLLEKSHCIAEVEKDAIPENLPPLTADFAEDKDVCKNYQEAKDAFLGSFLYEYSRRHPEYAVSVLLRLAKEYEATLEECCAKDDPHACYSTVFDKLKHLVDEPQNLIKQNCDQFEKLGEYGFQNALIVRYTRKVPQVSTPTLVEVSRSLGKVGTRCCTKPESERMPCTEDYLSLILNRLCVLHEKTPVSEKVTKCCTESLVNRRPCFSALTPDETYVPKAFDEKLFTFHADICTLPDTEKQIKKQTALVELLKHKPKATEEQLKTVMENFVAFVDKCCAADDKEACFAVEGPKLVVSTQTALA
Description: (§1) One of the primary functions of SAs is the transport of various compounds such as drugs, fatty acids and hormones. Albumins are composed of three domains, I, II and III, and each of them is subdivided into A and B subdomains that host compounds [90]. […] Site markers like warfarin and ibuprofen are used to identify in which albumin site a compound is bound, as these markers bind selectively to Sudlow’s sites I and II, respectively. The SA-binding site of the compounds was investigated by calculating the SA-binding constant for both HSA and BSA in the presence of ibuprofen or warfarin and comparing them with the values previously derived (in the absence of any marker).
(§2) Incremental addition of the compounds into a solution containing the SA (HSA or BSA) and the respective site marker (warfarin or ibuprofen) induced quenching of the initial fluorescence emission band (Figures S19–S22). The SA-binding constants for each compound in the presence of warfarin or ibuprofen were calculated with the Scatchard equation (Equation (S7)) and the corresponding plots (Figures S23–S26) and are compared with those calculated in the absence of any site marker to determine the preferable drug site. […]
(§3) From the Scatchard equation:
(§4) [Q] = nK − K Io (equation S7) where n is the number of binding sites per albumin and K is the albumin−binding constant (K, in M−1) is calculated from the slope in plots (ΔI/Io)/[compound] versus (ΔI/Io) and n is given by the ratio of y intercept to the slope.
(§5) S5.2 Competitive albumin−fluorescence studies with warfarin and ibuprofen The competitive studies with warfarin or ibuprofen (as site−markers) were performed by tryptophan fluorescence quenching experiments using a fixed concentration of the albumin and site markers (3 μM) in buffer (containing 15 mM trisodium citrate and 150 mM NaCl at pH 7.0). The fluorescence emission spectra were recorded in the presence of increasing amounts of the compounds as quenchers with an excitation wavelength of 295 nm. The Scatchard equation (equation S7) and plots were applied on the corrected albumin−fluorescence emission spectra to determine the albumin−binding constant of the compounds in the presence of warfarin or ibuprofen.

[3] = target: T2, human serum albumin (HSA) (Homo sapiens, UniProt P02768); experiment: as above; format: binding; conditions: for K(HSA, ibuprofen): in the presence of ibuprofen; for K(HSA, warfarin): in the presence of warfarin
T2 construct: purchased Sigma-Aldrich Co
T2 sequence (P02768 25-609): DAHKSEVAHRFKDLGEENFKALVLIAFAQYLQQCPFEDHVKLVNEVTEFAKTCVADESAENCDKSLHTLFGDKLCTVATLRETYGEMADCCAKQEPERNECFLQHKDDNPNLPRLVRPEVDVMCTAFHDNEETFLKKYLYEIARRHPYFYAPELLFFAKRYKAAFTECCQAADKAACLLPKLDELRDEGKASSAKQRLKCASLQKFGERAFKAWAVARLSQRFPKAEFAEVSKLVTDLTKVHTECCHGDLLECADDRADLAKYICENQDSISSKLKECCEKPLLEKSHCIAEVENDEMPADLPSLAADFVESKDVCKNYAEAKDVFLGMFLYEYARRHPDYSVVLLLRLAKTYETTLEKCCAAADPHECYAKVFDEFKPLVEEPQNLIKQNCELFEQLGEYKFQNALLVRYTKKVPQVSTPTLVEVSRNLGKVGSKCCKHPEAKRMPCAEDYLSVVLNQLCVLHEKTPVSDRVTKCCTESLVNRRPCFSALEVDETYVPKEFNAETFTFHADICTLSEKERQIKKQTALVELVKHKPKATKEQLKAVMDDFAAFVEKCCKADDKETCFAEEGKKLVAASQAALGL
Description: as §1, §2, §3, §4, §5

Structure (SMILES): CO.CO.CO.CO.O=C([O-])c1ccccc1Nc1ccc([N+](=O)[O-])cc1.O=C([O-])c1ccccc1Nc1ccc([N+](=O)[O-])cc1.[Co+2] [Complex 1, [Co(4′–NO2–fen)2(MeOH)4]]
- Stern–Volmer constant Ksv (EB–DNA) [1]: 4.99 (±0.14) × 10^4 M^−1
- relative EB–DNA fluorescence emission intensity (I/Io, %), final [1]: 35.4%
- percentage of EB–DNA fluorescence emission quenching (ΔI/I0, %) [1]: 64.6%
- quenching constant Kq (EB–DNA) [1]: 2.17 (±0.06) × 10^12 M^−1s^−1
- preferential BSA-binding site [2]: Sudlow’s site I
- K(BSA, ibuprofen) [2]: 1.38 (±0.08) × 10^5 M^−1
- K(BSA, warfarin) [2]: 1.06 (±0.04) × 10^5 M^−1
- K(HSA, ibuprofen) [3]: 1.66 (±0.09) × 10^5 M^−1
- K(HSA, warfarin) [3]: 1.99 (±0.11) × 10^5 M^−1

Structure (SMILES): O=C(O)c1ccccc1Nc1ccc([N+](=O)[O-])cc1 [4′–NO2–fenH, 4′–nitrofenamic acid]
- Stern–Volmer constant Ksv (EB–DNA) [1]: 5.36 (±0.27) × 10^4 M^−1
- relative EB–DNA fluorescence emission intensity (I/Io, %), final [1]: 52.9%
- percentage of EB–DNA fluorescence emission quenching (ΔI/I0, %) [1]: 47.1%
- quenching constant Kq (EB–DNA) [1]: 2.33 (±0.11) × 10^12 M^−1s^−1
- preferential BSA-binding site [2]: Sudlow’s site I
- K(BSA, ibuprofen) [2]: 2.70 (±0.11) × 10^5 M^−1
- K(BSA, warfarin) [2]: 1.41 (±0.06) × 10^5 M^−1
- K(HSA, ibuprofen) [3]: 2.91 (±0.06) × 10^5 M^−1
- K(HSA, warfarin) [3]: 3.22 (±0.12) × 10^5 M^−1

Structure (SMILES): C[O-].C[O-].Cc1ccc2ccc3ccc(C)nc3c2n1.Cc1ccc2ccc3ccc(C)nc3c2n1.O=C([O-])c1ccccc1Nc1ccc([N+](=O)[O-])cc1.O=C([O-])c1ccccc1Nc1ccc([N+](=O)[O-])cc1.[Co+2].[Co+2] [Complex 4, [Co2(4′–NO2–fen)2(μ–CH3O)2(neoc)2]]
- Stern–Volmer constant Ksv (EB–DNA) [1]: 7.78 (±0.24) × 10^4 M^−1
- relative EB–DNA fluorescence emission intensity (I/Io, %), final [1]: 26.0%
- percentage of EB–DNA fluorescence emission quenching (ΔI/I0, %) [1]: 74.0%
- quenching constant Kq (EB–DNA) [1]: 3.38 (±0.10) × 10^12 M^−1s^−1
- preferential BSA-binding site [2]: Sudlow’s site I
- K(BSA, ibuprofen) [2]: 3.60 (±0.14) × 10^5 M^−1
- K(BSA, warfarin) [2]: 2.40 (±0.06) × 10^5 M^−1
- K(HSA, ibuprofen) [3]: 3.04 (±0.15) × 10^5 M^−1
- K(HSA, warfarin) [3]: 5.00 (±0.18) × 10^5 M^−1

Structure (SMILES): O=C([O-])c1ccccc1Nc1ccc([N+](=O)[O-])cc1.O=C([O-])c1ccccc1Nc1ccc([N+](=O)[O-])cc1.[Co+2].c1cnc2c(c1)ccc1cccnc12 [Complex 3, [Co(4′–NO2–fen)2(phen)]]
- Stern–Volmer constant Ksv (EB–DNA) [1]: 7.39 (±0.21) × 10^4 M^−1
- relative EB–DNA fluorescence emission intensity (I/Io, %), final [1]: 26.3%
- percentage of EB–DNA fluorescence emission quenching (ΔI/I0, %) [1]: 73.7%
- quenching constant Kq (EB–DNA) [1]: 3.21 (±0.09) × 10^12 M^−1s^−1
- preferential BSA-binding site [2]: Sudlow’s site I
- K(BSA, ibuprofen) [2]: 1.95 (±0.03) × 10^5 M^−1
- K(BSA, warfarin) [2]: 1.60 (±0.06) × 10^5 M^−1
- K(HSA, ibuprofen) [3]: 5.23 (±0.17) × 10^4 M^−1
- K(HSA, warfarin) [3]: 4.80 (±0.17) × 10^5 M^−1

Structure (SMILES): O=C([O-])c1ccccc1Nc1ccc([N+](=O)[O-])cc1.O=C([O-])c1ccccc1Nc1ccc([N+](=O)[O-])cc1.[Co+2].c1ccc(Nc2ccccn2)nc1 [Complex 2, [Co(4′–NO2–fen)2(bipyam)]]
- Stern–Volmer constant Ksv (EB–DNA) [1]: 8.91 (±0.21) × 10^4 M^−1
- relative EB–DNA fluorescence emission intensity (I/Io, %), final [1]: 32.6%
- percentage of EB–DNA fluorescence emission quenching (ΔI/I0, %) [1]: 67.3%
- quenching constant Kq (EB–DNA) [1]: 3.88 (±0.09) × 10^12 M^−1s^−1
- preferential BSA-binding site [2]: Sudlow’s site II
- K(BSA, ibuprofen) [2]: 1.42 (±0.09) × 10^5 M^−1
- K(BSA, warfarin) [2]: 1.85 (±0.06) × 10^5 M^−1
- K(HSA, ibuprofen) [3]: 2.02 (±0.03) × 10^5 M^−1
- K(HSA, warfarin) [3]: 2.75 (±0.19) × 10^5 M^−1

— PMC12195967, “Cobalt(II) Complexes of 4′–Nitro–Fenamic Acid: Characterization and Biological Evaluation” (Molecules, 2025)
